Read-outs that look alike come from different tables or passages of the source.
Legend:
[1] = system: P. falciparum Dd2 (PfLuc) line expressing firefly luciferase, asexual blood stage; test: microbe, parasite or virus in culture; set-up: species or system P. falciparum Dd2-luciferase in human red blood cells; PfLuc Dd2 asexual blood stage luciferase viability, BrightGlo luminescence, 96 h; settings: Plasmodium falciparum, DD2, Erythrocyte
Procedure: (§1) A transgenic line of Plasmodium falciparum (Dd2) constitutively expressing firefly luciferase was used for primary and reconfirmation screening. Cultures were maintained in complete media at 5% hematocrit (Human Whole Blood O+) and incubated at 37 °C in a low oxygen environment (3% O2, 5% CO2, and 92% N2). Culture health and parasitemia were tracked by Giemsa staining and bright field microscopy. Prior to dispensing parasites for primary screening, 20 nL of test compounds and 10 nL of control compounds (artemisinin and DMSO) were seeded per well using an Echo 550 acoustic dispenser (Labcyte) for final assay concentrations of 5 and 10 μM, respectively. When parasite cultures reached 3% to 8% parasitemia, as determined by a blood smear, infected blood was centrifuged at 800g for 5 min. […] From this blood mixture, 8 μL was dispensed per well in 1536-well, white, solid-bottom plates (789173-F, Greiner) using a MultiFlo FX Multi-Mode dispenser (BioTek). Plates were covered with a porous metal lid and incubated at 37 °C inside large plastic Ziploc bags filled with a blood gas mixture (3% O2, 5% CO2, and 92% N2) for 96 h. To prevent evaporation, a clean tray of water was included within each bag. Following incubation, BrightGlo was prepared by manufacturer specifications and dispensed at 2 μL per well using the MultiFlo dispenser. Plates were left for 20 min before being read with the ViewLux uHTS microplate imager (PerkinElmer) with a 90 s exposure time at the High Sensitivity Luminescence setting. Raw data were processed using GeneData (v12.0.5), whereby activity was normalized to negative minus positive controls. The correction of Runwise Pattern (Multiplicative) was applied, and compounds were considered hits when activity was reduced by ≥70%. […] Also, plates tested in 11-point dose response format were incubated at both 48 a The primary assay was run at a compound concentration of 5 μM. Briefly, 8 μL of an ABS parasite mixture (∼10,000 parasites) was dispensed into 1536-well plates previously spotted with 64,811 GHCDL compounds (the remaining 3642 library compounds arrived later and were evaluated separately). After a 96 h incubation, 2 μL of luciferin (BrightGlo) was added, and the luminescent signal was measured. Bioluminescence was normalized to DMSO (negative control) and artemisinin-treated (positive control) wells for the single point screens. For this primary screen, assay fidelity was determined on a per plate basis using both the Z′-factor and the potency variance of the positive (artemisinin) and negative (DMSO) controls. The mean Z′ value was 0.60 (range of 0.43–0.75), with only one plate falling below our ideal 0.5 threshold (Figure S1).

[2] = system: P. falciparum Dd2 (PfLuc) line expressing firefly luciferase, asexual blood stage; test: microbe, parasite or virus in culture; set-up: species or system P. falciparum Dd2-luciferase in human red blood cells; PfLuc Dd2 asexual blood stage luciferase viability, BrightGlo luminescence, 48 h; settings: Plasmodium falciparum, DD2, Erythrocyte, read-out: CDD P. falciparum Luciferase 11pt dose response (48hr, n=2): IC50 (μM), 11-point
Procedure: as §1, with “From these (Sets 1 and 2),” for “The primary assay was run at a compound concentration of 5 μM. Briefly, 8 μL of an ABS parasite mixture (∼10,000 parasites) was dispensed into 1536-well plates previously spotted with 64,811 GHCDL”, “were resupplied as fresh powders” for “(the remaining 3642 library compounds arrived later”, “and” for “and were”, “in 11-point dose response tests (Pfluc; n = 2)” for “separately). After a 96 h incubation, 2 μL of luciferin (BrightGlo) was added, and the luminescent signal was measured. Bioluminescence was normalized to DMSO (negative control) and artemisinin-treated (positive control) wells”, “two time points.” for “single point screens. For this primary screen, assay fidelity was determined on a per plate basis using both the Z′-factor and the potency variance of the positive (artemisinin) and negative (DMSO) controls. The mean Z′ value was 0.60 (range of 0.43–0.75), with only one plate falling below our ideal 0.5 threshold (Figure S1).”

P. falciparum Dd2 [3] = test: microbe, parasite or virus in culture; set-up: species or system P. falciparum Dd2 in human red blood cells; SYBR Green I asexual blood stage proliferation (DNA) assay, P. falciparum Dd2, 96 h; settings: Plasmodium falciparum, DD2, Erythrocyte, 96 h, read-out: CDD P. falciparum Sybr Green I ABS Dd2 Dose Response: IC50 (uM)
[4] = system: P. falciparum Dd2 (PfLuc) line expressing firefly luciferase, asexual blood stage; test: microbe, parasite or virus in culture; format: cell-based, Plasmodium falciparum; settings: Plasmodium falciparum
P. falciparum Dd2 [5] = test: SYBR green I asexual blood stage proliferation assay (96 h); format: cell-based, Plasmodium falciparum; settings: Plasmodium falciparum, DD2, 11-pt dose response, 96hr
[6] = system: HepG2-A16-CD81 hepatocytes; test: cells; set-up: Uninfected hepatocyte viability, CellTiter-Glo luminescence; settings: sheet CDD Export 1;, cytotoxicity primary screen, read-out: Table S5. Liver stage reconfirmation data / HepG2 Cytotoxicity primary screen (2uM): % Inhibition
Procedure: For the screen, 5 μL of HepG2-A16-CD81 hepatocytes containing 3 × 10^3 cells was seeded into 1536-well plates, which had been prespotted with 10 nL of library compound (2 μM final assay concentration (Figure 1)) and incubated overnight. For PbLuc infected plates, approximately 750 purified sporozoites in 5 μL of screening media were added to each well and incubated for 48 h before measuring luciferase activity. Compounds were tested for toxicity in parallel (see Methods) by measuring uninfected hepatocyte viability using CellTiter-Glo. […] This hit rate was slightly lower than expected for an agnostic library, which prompted us to rescreen the entire library at 10 μM. The PbLuc and cytotoxicity assay plates for this second replicate would be stamped in-house with 50 nL of library compound per well, using the same compound plates as the sexual stage screen described below. All the assay parameters were kept similar, except the change in concentration and shortening the time the compounds spent in each well prior to infection. […] All potential false positive effectors from the CellTiter-Glo assay were filtered from subsequent studies (Table S1). Naturally, there were more primary hits from the 10 μM than the 2 μM screen due to the higher testing concentration. For reconfirmation, we sourced all the hits that inhibited PbLuc at >70% and mean HepG2 at <50% in the 2 μM screen or PbLuc at >60% in both 2 and 10 μM screens and mean HepG2 at <50%. The resulting compounds were acquired as DMSO stocks and retested in the dose response (50–2.82 × 10^–4 μM or 25–141.13 × 10^–6 μM) against PbLuc and uninfected hepatocytes (Table S5). […] The majority of these compounds were weak inhibitors, although 18 submicromolar hits were found (Table S5).

[7] = system: P. falciparum (NF54) stage V gametocytes; test: Stage V gametocyte viability assay (MitoTracker Red CMXRos high content imaging); format: cell-based, Plasmodium falciparum; settings: Plasmodium falciparum, NF54, 72 h; for inhibition at 2 µM: read-out: Stg V Gam primary screen: Inhibition % (2uM) (n=2)
[8] = read-out: CDD P. falciparum Luc 11pt dose response (96hr, n=2): IC50 (μM), 11-point
[9] = DD2, read-out: CDD P. falciparum Luciferase ABS 11-pt Reconfirmation Dose Response (48hr): IC50 (μM), 11-pt dose response, 48hr
[10] = DD2, 8-pt dose response, 96hr, read-out: CDD P. falciparum Luciferase ABS 8-pt Reconfirmation Dose Response (96hr): Maximum inhibition (%)
[11] = DD2, 11-pt dose response, 48hr, read-out: CDD P. falciparum Luciferase ABS 11-pt Reconfirmation Dose Response (48hr): Maximum inhibition (%)
[12] = DD2, 11-pt dose response, 96hr, read-out: CDD P. falciparum Luciferase ABS 11-pt Reconfirmation Dose Response (96hr): IC50
[13] = DD2, 11-pt dose response, 96hr, read-out: CDD P. falciparum Luciferase ABS 11-pt Reconfirmation Dose Response (96hr): Maximum inhibition (%)
[14] = Sybr Green I, read-out: CDD P. falciparum Sybr Green I ABS 11-pt Reconfirmation Dose Response (96hr): IC50
[15] = Sybr Green I, read-out: CDD P. falciparum Sybr Green I ABS 11-pt Reconfirmation Dose Response (96hr): Maximum inhibition (%)
[16] = read-out: Stg V Gam dose response IC50 (µM) (n=3), 10-point dose response, n=3, 72 h

COc1cc(C(=O)NCc2ccc3c(c2)CCCN3C)cc(OC)c1Br [DDD01300030]
IC50 [1, 8]: 2.46 µM | IC50 [2]: 5.74 µM | IC50 (P. falciparum Dd2 [3]): > 12.5 µM

c1cc(-c2n[nH]cc2-c2ccnc(N3CCCC3)n2)ccn1 [DDD01235828]
IC50 [4, 9]: > 4.16 µM | Emax [4, 10]: 91% | Emax [4, 11]: 53.9% | IC50 [4, 12]: 0.167 µM | Emax [4, 13]: 92% | IC50 ([4]; 96 h incubation, Dd2 luciferase, read-out: 96 hour Pfluc IC50): 0.17 µM | IC50 (P. falciparum Dd2 [5]; [14]): 0.037 µM | Emax (P. falciparum Dd2 [5]; [15]): 79.4% | IC50 ([1]; 8-point, 96 h, DMSO stocks, read-out: CDD P. falciparum Luciferase ABS 8-pt Reconfirmation Dose Response (96hr): IC50): 0.0618 µM

CCOC(=O)C1(Cc2ccccc2-c2ccccc2OC)CCNCC1 [DDD01059034]
IC50 [1, 8]: 0.861 µM | IC50 [2]: 5.11 µM | IC50 (P. falciparum Dd2 [3]): > 4.16 µM

c1ccc(CCCN2CCN(c3ccc4nncn4n3)CC2)cc1 [DDD01295523]
IC50 [1, 8]: 0.912 µM | IC50 [2]: 3.86 µM

CN(C)CCNC(=O)c1sc2ccccc2c1C1CCC(CN)CC1 (stereo not drawn) [DDD01058779]
IC50 [1, 8]: 2.3 µM | IC50 [2]: 1.31 µM | IC50 (P. falciparum Dd2 [3]): 1.65 µM

Cc1cc(N2CCC(NC(C)Cc3ccsc3)CC2)nc(N)n1 (stereo not drawn) [DDD01252553]
IC50 [1, 8]: 0.246 µM | IC50 [2]: 1.11 µM | IC50 (P. falciparum Dd2 [3]): 1.01 µM

CN(C)CCCNCCC(c1ccccc1)C1CCOC(C)(C)C1 (stereo not drawn) [DDD01026663]
IC50 [1, 8]: 0.627 µM | IC50 [2]: 2.82 µM | IC50 (P. falciparum Dd2 [3]): > 1.39 µM

CNc1nc(C)c(-c2nc(-c3c(C)ncc4c3CCNC4)no2)s1 [DDD01244276]
IC50 [1, 8]: 0.337 µM | IC50 [2]: 0.956 µM | IC50 (P. falciparum Dd2 [3]): 1.65 µM

O=C(CN1CCCC(c2ccn[nH]2)C1)Nc1nc2c(s1)CCCC2 (stereo not drawn) [DDD01079490]
IC50 [4, 9]: 0.452 µM | IC50 ([4]; DD2, 8-pt dose response, 96hr, read-out: CDD P. falciparum Luciferase ABS 8-pt Reconfirmation Dose Response (96hr): IC50): 0.28 µM | Emax [4, 10]: 89.3% | Emax [4, 11]: 82.4% | IC50 [4, 12]: 0.266 µM | Emax [4, 13]: 97% | IC50 (P. falciparum Dd2 [5]; [14]): 0.81 µM | Emax (P. falciparum Dd2 [5]; [15]): 69.6% | inhibition at 2 µM [6]: 7.13%

Cc1cn2c(n1)C(CNCC1=Cc3ccccc3OC1)CCC2 (stereo not drawn) [DDD01073292, CC1=CN2CCCC(CNCC3=CC4=CC=CC=C4OC3)C2=N1]
IC50 ([4]; DD2, read-out: P. falciparum Luciferase ABS 11-pt Reconfirmation Dose Response (48hr): IC50, 11-pt dose response, 48hr): 4.19 µM | IC50 ([4]; DD2, 8-pt dose response, 96hr, read-out: P. falciparum Luciferase ABS 8-pt Reconfirmation Dose Response (96hr): IC50): 1.65 µM | Emax ([4]; DD2, 8-pt dose response, 96hr, read-out: P. falciparum Luciferase ABS 8-pt Reconfirmation Dose Response (96hr): Maximum inhibition (%)): 93% | IC50 ([4]; DD2, 11-pt dose response, 96hr, read-out: P. falciparum Luciferase ABS 11-pt Reconfirmation Dose Response (96hr): IC50): 1.84 µM | Emax ([4]; DD2, 11-pt dose response, 96hr, read-out: P. falciparum Luciferase ABS 11-pt Reconfirmation Dose Response (96hr): Maximum inhibition (%)): 99.3% | IC50 (P. falciparum Dd2 [5]; read-out: P. falciparum Sybr Green I ABS 11-pt Reconfirmation Dose Response (96hr): IC50): 2.32 µM | Emax (P. falciparum Dd2 [5]; read-out: P. falciparum Sybr Green I ABS 11-pt Reconfirmation Dose Response (96hr): Maximum inhibition (%)): 83.8% | IC50 [7, 16]: 1.31 µM | inhibition at 2 µM [7]: 66% | inhibition at 2 µM [6]: -0.92%

COCCCNC1N=C(n2nc(C)cc2C)Nc2sc3c(c21)CCCC3 (stereo not drawn) [DDD01037467, COCCCNC1N=C(NC2=C1C1=C(CCCC1)S2)N1N=C(C)C=C1C]
IC50 ([7]; read-out: GAM V IC50, stage V gametocytes, 72 h): 0.34 µM | IC50 [7, 16]: 0.344 µM | inhibition at 2 µM [6]: 2.66%

CC1(c2ccccc2)CCCN(Cc2cncn2C2CCCC2)C1 (stereo not drawn) [DDD01246491, CC1(CCCN(CC2=CN=CN2C2CCCC2)C1)C1=CC=CC=C1]
IC50 [7, 16]: 2.65 µM | inhibition at 2 µM [7]: 55.4% | inhibition at 2 µM [6]: -6.73%

COc1ccc(CNCC2CCN(CC(C)O)CC2)c2ccccc12 (stereo not drawn) [DDD01302860]
IC50 [1, 8]: 0.621 µM | IC50 [2]: 1.27 µM | IC50 (P. falciparum Dd2 [3]): 0.743 µM

Source: article PMC7155171, “Probing the Open Global Health Chemical Diversity Library for Multistage-Active Starting Points for Next-Generation Antimalarials” (ACS Infectious Diseases, 2020)
